Experimental findings from ChEMBL document CHEMBL2177014 (J Med Chem, 2012) are described below.

Counter-ions that a name gives are not always drawn. A value given as a limit tells only on which side of the number the result lay.

Data set [1] addresses Glutamate receptor ionotropic, NMDA 2B (Rattus norvegicus, UniProt Q00960). In words: Displacement of [3H]Ifenprodil from NMDAR-2B in Sprague-Dawley rat frontal cortex homogenates after 2 hrs by liquid scintillation counting. It counts as tissue-based.
In another data set the test system is SH-SY5Y. In words: Neuroprotective activity in human SH-SY5Y cells assessed as protection against NMDA-induced cell death after 6 hrs by MTS assay. It counts as functional, cell-based.
The next data set deals with T1, Acetylcholinesterase (Rattus norvegicus, UniProt P37136).
T1 sequence (P37136 whole entry): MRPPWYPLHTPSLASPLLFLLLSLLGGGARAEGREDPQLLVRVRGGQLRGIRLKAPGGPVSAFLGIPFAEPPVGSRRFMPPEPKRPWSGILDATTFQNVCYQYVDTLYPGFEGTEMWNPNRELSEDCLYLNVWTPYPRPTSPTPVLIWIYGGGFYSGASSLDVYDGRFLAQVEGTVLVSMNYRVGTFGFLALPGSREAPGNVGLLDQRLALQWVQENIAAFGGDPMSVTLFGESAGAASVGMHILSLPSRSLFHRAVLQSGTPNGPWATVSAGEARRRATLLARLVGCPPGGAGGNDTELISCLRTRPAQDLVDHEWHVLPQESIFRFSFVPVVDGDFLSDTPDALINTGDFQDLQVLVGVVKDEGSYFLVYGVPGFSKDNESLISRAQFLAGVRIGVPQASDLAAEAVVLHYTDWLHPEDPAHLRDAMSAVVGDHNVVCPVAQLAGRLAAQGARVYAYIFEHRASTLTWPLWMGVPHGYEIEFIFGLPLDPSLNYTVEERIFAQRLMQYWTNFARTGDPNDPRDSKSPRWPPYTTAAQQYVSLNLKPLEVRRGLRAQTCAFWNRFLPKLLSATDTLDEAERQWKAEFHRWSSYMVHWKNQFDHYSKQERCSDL
In words: biochemical.

Data set [2] is described as follows: Lipophilicity, log P of the compound. The settings on record: octanol/water. The format is physicochemical.
Data set [3] is described as follows: Displacement of [3H]MK-801 from NMDAR in Sprague-Dawley rat cerebral cortex homogenates after 2 hrs by liquid scintillation counting. The format is tissue-based.
The nature of data set [4]: Binding affinity to NMDAR in Sprague-Dawley rat cerebral cortex homogenates. The format is tissue-based.
The species named for the next data set is Rattus norvegicus. In words: Displacement of [3H]MK-801 from NMDAR in Sprague-Dawley rat cerebral cortex homogenates at 10 uM after 2 hrs by liquid scintillation counting. The format is tissue-based.
Data set [5] deals with T2, Acetylcholinesterase (Rattus norvegicus) (UniProt P37136).
T2 sequence (whole entry): T1 sequence (P37136 whole entry)
In words: Inhibition of AChE in Wistar rat brain homogenates using acetylthiocholine iodide and DTNB as substrate at 10 uM after 10 mins by Ellman method. It counts as tissue-based.

Chain of Glutamate receptor ionotropic, NMDA 2B (Q00960 whole entry): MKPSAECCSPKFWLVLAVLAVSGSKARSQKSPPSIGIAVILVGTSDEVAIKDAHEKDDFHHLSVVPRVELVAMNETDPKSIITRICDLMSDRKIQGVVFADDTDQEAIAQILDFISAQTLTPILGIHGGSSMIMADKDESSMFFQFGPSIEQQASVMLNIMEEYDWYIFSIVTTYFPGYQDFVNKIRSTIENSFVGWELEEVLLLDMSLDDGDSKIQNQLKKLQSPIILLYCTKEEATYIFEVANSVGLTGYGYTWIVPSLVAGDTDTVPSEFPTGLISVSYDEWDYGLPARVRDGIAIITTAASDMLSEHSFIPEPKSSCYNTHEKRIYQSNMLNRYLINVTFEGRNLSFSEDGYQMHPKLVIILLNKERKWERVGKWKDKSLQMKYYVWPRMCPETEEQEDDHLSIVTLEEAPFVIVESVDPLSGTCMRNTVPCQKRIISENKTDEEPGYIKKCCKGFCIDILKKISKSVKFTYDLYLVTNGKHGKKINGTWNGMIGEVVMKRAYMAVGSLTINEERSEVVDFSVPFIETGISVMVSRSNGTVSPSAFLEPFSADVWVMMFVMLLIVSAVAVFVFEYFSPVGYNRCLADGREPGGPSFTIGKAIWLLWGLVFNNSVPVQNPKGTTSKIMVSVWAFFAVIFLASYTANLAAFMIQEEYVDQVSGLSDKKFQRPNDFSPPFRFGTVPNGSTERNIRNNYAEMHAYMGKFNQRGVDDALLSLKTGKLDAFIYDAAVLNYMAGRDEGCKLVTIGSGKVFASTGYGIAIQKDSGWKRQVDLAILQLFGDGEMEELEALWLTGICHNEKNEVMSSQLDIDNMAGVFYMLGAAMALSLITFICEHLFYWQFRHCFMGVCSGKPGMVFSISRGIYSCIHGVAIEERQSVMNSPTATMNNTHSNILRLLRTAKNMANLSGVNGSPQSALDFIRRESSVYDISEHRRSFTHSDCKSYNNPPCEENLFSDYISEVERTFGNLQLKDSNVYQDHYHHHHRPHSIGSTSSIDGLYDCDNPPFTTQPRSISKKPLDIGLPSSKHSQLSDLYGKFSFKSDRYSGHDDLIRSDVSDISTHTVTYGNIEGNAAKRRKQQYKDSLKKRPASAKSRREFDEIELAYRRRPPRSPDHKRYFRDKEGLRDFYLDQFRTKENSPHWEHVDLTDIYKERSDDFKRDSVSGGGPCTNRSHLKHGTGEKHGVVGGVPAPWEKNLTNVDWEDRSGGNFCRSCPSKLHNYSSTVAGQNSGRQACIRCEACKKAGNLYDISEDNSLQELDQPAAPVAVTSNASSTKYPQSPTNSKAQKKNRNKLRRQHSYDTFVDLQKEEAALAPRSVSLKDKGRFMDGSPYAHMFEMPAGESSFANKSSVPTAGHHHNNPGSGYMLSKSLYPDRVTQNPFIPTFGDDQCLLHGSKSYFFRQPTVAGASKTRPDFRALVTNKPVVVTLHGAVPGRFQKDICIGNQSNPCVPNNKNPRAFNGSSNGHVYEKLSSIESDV

`COc1ccc2c3c1O[C@H]1C[C@@H](O)C=C[C@@]31CCN(CCCCCCNC13CC4CC(C)(CC(C)(C4)C1)C3)C2` [MEMAGAL]: the Ki in data set [1] and in data set [3] was 4.6 µM in each case. Besides, the 50% inhibitory concentration (IC50) in the data set with SH-SY5Y came to 0.00028 µM; on Acetylcholinesterase, 0.00116 µM. The same compound had a logP in data set [2] of 4.94.

Take `COc1ccc2c3c1O[C@H]1C[C@@H](O)C=C[C@@]31CCN(CCCCCNC13CC4CC(C)(CC(C)(C4)C1)C3)C2`: the values for the Ki in data set [1] and in data set [3] were 40.9 µM and above 10 µM, respectively. On Acetylcholinesterase, this compound yielded an IC50 of 0.00431 µM. Further, the logP in data set [2] stood at 4.46.

As to `COc1ccc2c3c1O[C@H]1C[C@@H](O)C=C[C@@]31CCN(CCSCCNC13CC4CC(C)(CC(C)(C4)C1)C3)C2`, the Ki is above 100 µM in data set [1] and above 10 µM in data set [3]. The compound also gave an IC50 against Acetylcholinesterase of 0.131 µM.

In the case of `COc1ccc2c3c1O[C@H]1C[C@@H](O)C=C[C@@]31CCN(CCCCCCCCNC13CC4CC(C)(CC(C)(C4)C1)C3)C2`, the Ki was determined as 2.9 µM in data set [1] and 4.99 µM in data set [3]. In addition, the IC50 against Acetylcholinesterase was found to be 0.00536 µM. Further, the logP in data set [2] was 5.9.

`C[C@]12N[C@H](Cc3ccccc31)c1ccccc12` [DIZOCILPINE MALEATE] gave a dissociation constant (Kd) in data set [4] of 0.004 µM. In the data set with SH-SY5Y, the IC50 worked out at 0.00791 µM.

Turning to `COc1ccc2c3c1O[C@H]1C[C@@H](O)C=C[C@@]31CCN(CCCCCCCNC13CC4CC(C)(CC(C)(C4)C1)C3)C2`, the Ki in data set [1] was 11 µM; in data set [3] it was 10 µM. The results for the IC50 with SH-SY5Y and against Acetylcholinesterase were 0.00021 µM and 0.00179 µM, respectively. For the same compound, the lipophilicity (logP) in data set [2] amounted to 5.42.

On to `COc1ccc2c3c1O[C@H]1C[C@@H](O)C=C[C@@]31CCN(CCCNCCCNC13CC4CC(C)(CC(C)(C4)C1)C3)C2`, for which the values for the Ki in data set [1] and in data set [3] were 3.32 µM and 5.41 µM, respectively. The compound further showed an IC50 against Acetylcholinesterase of 0.168 µM.

In the case of `COc1ccc2c3c1O[C@H]1C[C@@H](O)C=C[C@@]31CCN(C)C2` [GALANTAMINE], the Ki is above 100 µM in data set [1] and above 10 µM in data set [3]. Also, the IC50 in the data set with SH-SY5Y was 0.747 µM.

On to `COc1ccc2c3c1O[C@H]1C[C@@H](O)C=C[C@@]31CCN(CCCC(=O)NC13CC4CC(C)(CC(C)(C4)C1)C3)C2`, for which the Ki in data set [1] was above 100 µM; in data set [3], above 10 µM. The compound further showed an IC50 at Acetylcholinesterase of 0.0557 µM.

`COc1ccc2c3c1O[C@H]1C[C@@H](O)C=C[C@@]31CCN(CCCCC(=O)NC13CC4CC(C)(CC(C)(C4)C1)C3)C2`: the Ki in data set [1] is above 100 µM; in data set [3] it was above 10 µM. Also, the IC50 at Acetylcholinesterase was found to be 0.369 µM.

For the compound `COc1ccc2c3c1O[C@H]1C[C@@H](O)C=C[C@@]31CCN(CCCCCCCN(C)C13CC4CC(C)(CC(C)(C4)C1)C3)C2`, the inhibition constant Ki in data set [1] was above 100 µM; in data set [3] it was above 10 µM. The IC50 on Acetylcholinesterase turned out to be 0.00133 µM.

Turning to `COc1ccc2c3c1O[C@H]1C[C@@H](O)C=C[C@@]31CCN(CCOCCNC13CC4CC(C)(CC(C)(C4)C1)C3)C2`, the figures for the inhibition constant Ki in data set [1] and in data set [3] were above 100 µM and above 10 µM, respectively. The compound further displayed an IC50 on Acetylcholinesterase of 3.92 µM.

In data set [3], `CC(C(O)c1ccc(O)cc1)N1CCC(Cc2ccccc2)CC1` (configuration not stated) [IFENPRODIL] gave a Ki of 3.08 µM.

Take `COc1ccc2c3c1O[C@H]1C[C@@H](O)C=C[C@@]31CCN(CCCCCCCCCNC13CC4CC(C)(CC(C)(C4)C1)C3)C2`: the results for the Ki in data set [1] and in data set [3] were above 100 µM and 4.63 µM, respectively. Moreover, at Acetylcholinesterase, half-maximal inhibition (IC50) was put at 0.00232 µM. In data set [2], this compound showed a logP of 6.38.

In the case of `COc1ccc2c3c1O[C@H]1C[C@@H](O)C=C[C@@]31CCN(CCCCNC13CC4CC(C)(CC(C)(C4)C1)C3)C2`, the Ki is above 100 µM in data set [1] and 2.32 µM in data set [3]. At Acetylcholinesterase, this compound gave an IC50 of 0.696 µM. Also, the logP in data set [2] amounted to 3.98.

`COc1ccc2c3c1O[C@H]1C[C@@H](O)C=C[C@@]31CCN(CCCCCC(=O)NC13CC4CC(C)(CC(C)(C4)C1)C3)C2` showed a Ki in data set [1] of 9.76 µM. For the same compound, the 50% inhibitory concentration (IC50) with SH-SY5Y is 0.00037 µM; against Acetylcholinesterase it was 0.0113 µM. In the data set filed under Rattus norvegicus, the inhibition amounted to 33.9%.

Regarding `CC12CC3CC(C)(C1)CC(N)(C3)C2` [MEMANTINE], the IC50 in the data set with SH-SY5Y was determined as 0.718 µM. Further, in data set [5], the inhibition stood at 8.5%. This compound also displayed a Ki in data set [3] of 1.16 µM.

Regarding `COc1ccc2c3c1O[C@H]1C[C@@H](O)C=C[C@@]31CCN(CCCCCCN(C)C13CC4CC(C)(CC(C)(C4)C1)C3)C2`, the results for the inhibitory constant (Ki) in data set [1] and in data set [3] were 5.25 µM and above 10 µM, respectively. The compound further yielded an IC50 against Acetylcholinesterase of 0.00103 µM.

Take `COc1ccc2c3c1O[C@H]1C[C@@H](O)C=C[C@@]31CCN(CCOCCOCCNC13CC4CC(C)(CC(C)(C4)C1)C3)C2`: the inhibitory constant (Ki) is above 100 µM in data set [1] and above 10 µM in data set [3]. Besides, the IC50 in the data set with SH-SY5Y is above 10 µM; on Acetylcholinesterase, 0.0809 µM.

As for `COc1ccc2c3c1O[C@H]1C[C@@H](O)C=C[C@@]31CCN(CCCCCCCCN(C)C13CC4CC(C)(CC(C)(C4)C1)C3)C2`, the Ki is above 100 µM in data set [1] and above 10 µM in data set [3]. Further, half-maximal inhibition at Acetylcholinesterase (IC50) required 0.00052 µM.
